In test [1] the target is T1, UVR8^D96N/D107N (constitutive monomer) (Arabidopsis thaliana, UniProt Q9FN03, D96N/D107N).
T1 sequence (Q9FN03 1-440 D96N/D107N): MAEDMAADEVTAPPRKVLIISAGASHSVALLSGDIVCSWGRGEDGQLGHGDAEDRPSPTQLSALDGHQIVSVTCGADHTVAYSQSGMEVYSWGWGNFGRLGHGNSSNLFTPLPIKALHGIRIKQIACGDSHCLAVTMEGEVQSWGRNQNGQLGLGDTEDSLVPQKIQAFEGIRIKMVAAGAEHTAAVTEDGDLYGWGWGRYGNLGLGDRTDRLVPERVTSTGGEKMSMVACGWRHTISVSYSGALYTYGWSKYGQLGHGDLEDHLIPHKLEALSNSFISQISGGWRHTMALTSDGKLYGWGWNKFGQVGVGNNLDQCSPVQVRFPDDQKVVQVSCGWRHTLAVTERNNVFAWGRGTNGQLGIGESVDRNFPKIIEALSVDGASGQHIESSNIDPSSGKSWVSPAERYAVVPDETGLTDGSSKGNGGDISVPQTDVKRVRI
Briefly: nanoDSF Tm increase with purified recombinant protein. In kind it is binding. A general note: Differential scanning fluorimetry follows unfolding on heating by fluorescence.

Test [2] concerns the target UVR8 (UV RESISTANCE LOCUS8) (Arabidopsis thaliana, UniProt Q9FN03). Briefly: MST. Type of test: binding.
Test [3] addresses T2, His-SUMO-UVR8 (wild-type UV … LOCUS8) (Arabidopsis thaliana), Q9FN03.
T2 chain: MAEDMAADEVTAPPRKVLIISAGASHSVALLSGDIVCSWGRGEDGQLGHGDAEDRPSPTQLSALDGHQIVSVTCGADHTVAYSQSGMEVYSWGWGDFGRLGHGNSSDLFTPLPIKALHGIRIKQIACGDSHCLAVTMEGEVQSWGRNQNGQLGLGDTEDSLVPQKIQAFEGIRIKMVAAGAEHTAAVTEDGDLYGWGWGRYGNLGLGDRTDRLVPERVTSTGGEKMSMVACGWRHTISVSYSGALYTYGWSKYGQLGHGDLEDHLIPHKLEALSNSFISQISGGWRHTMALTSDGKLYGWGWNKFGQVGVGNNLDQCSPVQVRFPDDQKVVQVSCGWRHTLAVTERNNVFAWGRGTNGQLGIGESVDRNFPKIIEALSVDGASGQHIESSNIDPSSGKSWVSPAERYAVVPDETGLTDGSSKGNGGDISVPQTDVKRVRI
Briefly: SEC. As to conditions: remark: other sources report otherwise.

For orientation: Kd means the free concentration of one partner at which half of the binding sites on the other are occupied at equilibrium, for simple one-to-one binding. The low end stands for tighter binding, the high end for weaker binding. As a reminder, the stoichiometry N is a count of units in the complex or per binding partner.

For the molecule `O=C(/C=C/c1ccc(O)cc1)c1c(O)cc(O)cc1O` [NGC, naringenin chalcone], the “nanoDSF Tm increase with purified recombinant protein” value in test [1] is listed as “significant increase in Tm was observed when NGC was incubated with the three monomeric forms”. The same molecule had a Kd in test [2] of approximately 12 µM.

B1: His-SUMO-UVR8 (wild-type UV … LOCUS8), Q9FN03 1-440 (natural protein)
chain: MAEDMAADEVTAPPRKVLIISAGASHSVALLSGDIVCSWGRGEDGQLGHGDAEDRPSPTQLSALDGHQIVSVTCGADHTVAYSQSGMEVYSWGWGDFGRLGHGNSSDLFTPLPIKALHGIRIKQIACGDSHCLAVTMEGEVQSWGRNQNGQLGLGDTEDSLVPQKIQAFEGIRIKMVAAGAEHTAAVTEDGDLYGWGWGRYGNLGLGDRTDRLVPERVTSTGGEKMSMVACGWRHTISVSYSGALYTYGWSKYGQLGHGDLEDHLIPHKLEALSNSFISQISGGWRHTMALTSDGKLYGWGWNKFGQVGVGNNLDQCSPVQVRFPDDQKVVQVSCGWRHTLAVTERNNVFAWGRGTNGQLGIGESVDRNFPKIIEALSVDGASGQHIESSNIDPSSGKSWVSPAERYAVVPDETGLTDGSSKGNGGDISVPQTDVKRVRI
With B1, in test [3], the stoichiometry N worked out at 2.

Values taken from paper PMC12371036 (Nature Communications, 2025).
